Reference: ChEMBL document CHEMBL1201862, “PubChem BioAssay data set” (2004)
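A five-concentration, 48-hour dose response in 96-well plates underlies each endpoint, interpolated linearly between surrounding concentrations. The concentration for 50% growth inhibition is given as GI50.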 The source made the active and inactive calls. Rule as the data show it: active = GI50 up to about 1.1 µM and inactive = higher.

Tests used:
Assay in all cases: NCI-60 cell line screen, 48 h
PC-3 = test system: PC-3
SNB-19 = test system: SNB-19
DU-145 = test system: DU-145
MCF7 = test system: MCF7
RXF 393 = test system: RXF 393
HCC 2998 = test system: HCC 2998
NCI-H460 = test system: NCI-H460
EKVX = test system: EKVX
UACC-62 = test system: UACC-62
SN12C = test system: SN12C
SK-MEL-28 = test system: SK-MEL-28
T47D = test system: T47D
NCI-H23 = test system: NCI-H23
HL-60 = test system: HL-60
HCT-116 = test system: HCT-116
NCI-H226 = test system: NCI-H226
MDA-MB-435 = test system: MDA-MB-435
CAKI-1 = test system: CAKI-1
SF-539 = test system: SF-539

Measured: GI50

C=CC1(c2ccc(Cl)c(Cl)c2)OCCO1
inactive: PC-3 > 100 µM | SNB-19 > 100 µM | DU-145 > 100 µM | MCF7 > 100 µM | RXF 393 > 100 µM | HCC 2998 > 100 µM | NCI-H460 > 100 µM | EKVX > 100 µM | UACC-62 > 100 µM | SN12C > 100 µM | SK-MEL-28 > 100 µM | T47D > 100 µM | NCI-H23 45.8 µM | HL-60 16.6 µM | HCT-116 97.7 µM | NCI-H226 71.8 µM | MDA-MB-435 > 100 µM

CCNc1ncnc2sc(SCc3ccccc3)nc12
inactive: PC-3 38.5 µM | SNB-19 > 100 µM | CAKI-1 71.6 µM | DU-145 75.7 µM | MCF7 79.6 µM | SF-539 > 100 µM | RXF 393 > 100 µM | HCC 2998 81.1 µM | NCI-H460 46.2 µM | EKVX 42 µM | SN12C > 100 µM | SK-MEL-28 > 100 µM | T47D 75.5 µM | NCI-H23 83.8 µM | HL-60 16.6 µM | HCT-116 85.9 µM | NCI-H226 > 100 µM | MDA-MB-435 > 100 µM

Cc1nn(C(=O)Cc2ccccc2)c2c1C(c1ccccc1)SC(=N)N2 (centres undefined)
inactive: PC-3 > 100 µM | SNB-19 > 100 µM | CAKI-1 > 100 µM | DU-145 > 100 µM | MCF7 > 100 µM | SF-539 > 100 µM | HCC 2998 > 100 µM | NCI-H460 > 100 µM | EKVX > 100 µM | UACC-62 > 100 µM | SN12C > 100 µM | SK-MEL-28 > 100 µM | T47D > 100 µM | NCI-H23 > 100 µM | HL-60 > 100 µM | HCT-116 > 100 µM | NCI-H226 > 100 µM | MDA-MB-435 > 100 µM

COc1ccc2[nH]c3c(c2c1)COc1ccccc1C3=O
inactive: PC-3 > 100 µM | SNB-19 > 100 µM | CAKI-1 > 100 µM | DU-145 > 100 µM | MCF7 > 100 µM | SF-539 89.1 µM | HCC 2998 > 100 µM | NCI-H460 > 100 µM | EKVX > 100 µM | UACC-62 > 100 µM | SN12C > 100 µM | SK-MEL-28 > 100 µM | T47D 44.4 µM | NCI-H23 > 100 µM | HL-60 > 100 µM | HCT-116 > 100 µM | NCI-H226 > 100 µM | MDA-MB-435 25.4 µM

O=C1/C(=C/Cc2ccco2)N=C(c2ccccc2)N1c1nc2ccc(Sc3ccccc3)cc2[nH]1
inactive: PC-3 22.9 µM | SNB-19 33.2 µM | CAKI-1 25.4 µM | DU-145 23.1 µM | MCF7 14 µM | SF-539 28.5 µM | RXF 393 15.1 µM | HCC 2998 16.9 µM | NCI-H460 26.9 µM | EKVX 25.6 µM | UACC-62 20.7 µM | SN12C 16.1 µM | SK-MEL-28 28.2 µM | T47D 32.1 µM | HL-60 21.7 µM | HCT-116 17.8 µM | MDA-MB-435 5.52 µM

C/C(=C\c1ccccc1)C(=O)NCc1ccc(C(=O)NCCc2ccccc2)cc1
inactive: PC-3 > 100 µM | SNB-19 9.42 µM | CAKI-1 > 93.3 µM | DU-145 > 100 µM | MCF7 > 100 µM | SF-539 10.1 µM | RXF 393 13.8 µM | HCC 2998 > 100 µM | NCI-H460 > 100 µM | EKVX 22.5 µM | UACC-62 > 100 µM | SN12C 21.2 µM | SK-MEL-28 > 100 µM | T47D > 89.7 µM | NCI-H23 > 52.4 µM | HCT-116 43.4 µM | NCI-H226 17.9 µM | MDA-MB-435 > 100 µM

COc1ccc(/C=C2\CCC(C)c3c2nc(N)c(C#N)c3-c2ccc(OC)c(OC)c2)cc1OC (centres undefined)
inactive: PC-3 2.92 µM | SNB-19 72.4 µM | CAKI-1 58.5 µM | DU-145 20.7 µM | MCF7 5.65 µM | SF-539 27.4 µM | RXF 393 4.01 µM | EKVX 1.36 µM | UACC-62 88.1 µM | SN12C > 100 µM | SK-MEL-28 45.8 µM | T47D 1.13 µM | NCI-H23 5.6 µM | HL-60 5.08 µM | HCT-116 8.81 µM | NCI-H226 5.7 µM | MDA-MB-435 10.8 µM

COC1CC2C=CC3C4OC2(/C(C)=C/C(C)C(C(C)O)OC1=O)C3C(O)C(C)C4OC(=O)c1ccc[nH]1 (centres undefined)
inactive: PC-3 46.6 µM | SNB-19 > 100 µM | CAKI-1 > 100 µM | DU-145 82 µM | MCF7 94.4 µM | SF-539 59.6 µM | HCC 2998 74.6 µM | NCI-H460 67 µM | EKVX 63.4 µM | UACC-62 > 100 µM | SN12C > 100 µM | SK-MEL-28 > 100 µM | T47D > 100 µM | NCI-H23 > 100 µM | HL-60 16.6 µM | HCT-116 49.3 µM | MDA-MB-435 58.1 µM

CCOC(=O)CCCn1nnc(C(=O)OCC)c1C(=O)OCC
inactive: PC-3 > 100 µM | SNB-19 > 100 µM | CAKI-1 > 100 µM | DU-145 > 100 µM | MCF7 > 100 µM | SF-539 > 100 µM | RXF 393 > 100 µM | HCC 2998 > 100 µM | NCI-H460 > 100 µM | EKVX > 100 µM | UACC-62 > 100 µM | SN12C > 100 µM | SK-MEL-28 > 100 µM | T47D > 100 µM | NCI-H23 > 100 µM | HCT-116 > 100 µM | NCI-H226 > 100 µM | MDA-MB-435 > 100 µM

COC(=O)[C@@H]1[C@H](O)CC[C@H]2[C@@]1(C)CC[C@@H](C)[C@]2(COC(C)=O)CC(=O)c1ccoc1
inactive: PC-3 > 50 µM | SNB-19 > 50 µM | CAKI-1 > 50 µM | DU-145 > 50 µM | MCF7 > 50 µM | SF-539 > 50 µM | RXF 393 > 50 µM | NCI-H460 > 50 µM | EKVX > 50 µM | UACC-62 20.9 µM | SN12C > 50 µM | SK-MEL-28 > 50 µM | T47D 28.8 µM | NCI-H23 > 50 µM | HL-60 17 µM | HCT-116 > 50 µM | NCI-H226 > 50 µM | MDA-MB-435 > 50 µM

S=C1CSc2c(cnc3ccccc23)N1
inactive: PC-3 68.4 µM | SNB-19 > 100 µM | CAKI-1 78.7 µM | DU-145 > 100 µM | MCF7 > 100 µM | RXF 393 20 µM | NCI-H460 56.6 µM | EKVX 76.4 µM | UACC-62 > 100 µM | SN12C > 100 µM | SK-MEL-28 > 100 µM | T47D 80.5 µM | NCI-H23 > 100 µM | HL-60 > 100 µM | HCT-116 > 100 µM | NCI-H226 53.7 µM | MDA-MB-435 > 100 µM

Nc1ccc(I)cn1
inactive: PC-3 > 100 µM | SNB-19 > 100 µM | CAKI-1 > 100 µM | DU-145 > 100 µM | MCF7 > 100 µM | RXF 393 > 100 µM | HCC 2998 > 100 µM | NCI-H460 > 100 µM | EKVX > 100 µM | UACC-62 > 100 µM | SN12C > 100 µM | SK-MEL-28 > 100 µM | T47D > 100 µM | NCI-H23 > 100 µM | HL-60 > 100 µM | HCT-116 > 100 µM | NCI-H226 > 100 µM | MDA-MB-435 > 100 µM

CCCCCc1nnc(NS(=O)(=O)c2ccc(NC(=O)OCC(C)C)cc2)s1
inactive: PC-3 36.8 µM | SNB-19 69.3 µM | CAKI-1 36.2 µM | DU-145 52 µM | MCF7 37.8 µM | SF-539 26.8 µM | RXF 393 74.8 µM | NCI-H460 31 µM | EKVX 33.3 µM | UACC-62 29.5 µM | SN12C 33.9 µM | SK-MEL-28 41.8 µM | T47D 34.2 µM | NCI-H23 53.2 µM | HL-60 31.2 µM | HCT-116 26.2 µM | MDA-MB-435 33.7 µM

Cc1nn(CN2CCN(C)CC2)c(=S)n1/N=C/c1ccc(-c2ccc(Cl)cc2Cl)o1
inactive: PC-3 68.7 µM | SNB-19 > 100 µM | DU-145 > 100 µM | MCF7 33.4 µM | SF-539 35.9 µM | HCC 2998 > 100 µM | EKVX 14.8 µM | UACC-62 99.5 µM | SN12C > 100 µM | SK-MEL-28 > 100 µM | T47D 21.2 µM | NCI-H23 71.6 µM | HL-60 32.7 µM | HCT-116 74.6 µM | NCI-H226 29.4 µM | MDA-MB-435 36.1 µM

O=S(=O)(O)c1cc(/N=N/c2cccc3ccccc23)c(O)c2ncccc12
inactive: PC-3 55.6 µM | SNB-19 > 100 µM | CAKI-1 > 100 µM | DU-145 > 100 µM | MCF7 23.7 µM | SF-539 56.1 µM | RXF 393 62.8 µM | NCI-H460 25.4 µM | EKVX 30.5 µM | UACC-62 36.2 µM | SN12C 60 µM | SK-MEL-28 > 100 µM | T47D 55.7 µM | NCI-H23 38.9 µM | HL-60 37.8 µM | HCT-116 34.9 µM | NCI-H226 16 µM | MDA-MB-435 > 100 µM

COc1cc2c(/C=C3/C(=O)Nc4ccc(Cl)cc43)c(Cl)[nH]c2cc1C
inactive: DU-145 1.36 µM | T47D 4.39 µM
active: PC-3 0.505 µM | SNB-19 0.408 µM | CAKI-1 0.39 µM | MCF7 0.489 µM | SF-539 0.232 µM | RXF 393 0.375 µM | NCI-H460 0.524 µM | UACC-62 0.288 µM | SN12C 0.325 µM | SK-MEL-28 0.26 µM | NCI-H23 0.916 µM | HL-60 0.366 µM | HCT-116 0.794 µM | NCI-H226 1.1 µM | MDA-MB-435 0.201 µM
